Measured values from patent US20260048051A1, “TREATMENT OF INFLAMMATORY BOWEL DISEASE” (Atomwise Inc., priority 2024, published 2026).

target: T1, TYK2-JH2 (Homo sapiens, UniProt P29597); assay: TYK2-JH2 HTRF binding assay (ligand efficiency); conditions: calculated from binding-assay IC50 (Equation 1)
T1 construct: TYK JH2 enzyme mix (ChemPartner: CP20210818A-BV); purchased ChemPartner CP20210818A-BV
Method: The following example describes the TYK2-JH2 HTRF binding assay used to determine the ligand efficiency of the TYK2 inhibitors.
To calculate ligand efficiency, Equation 1 is applied: […]
in which IC50 comes from the binding assay used to determine compound potency.
TYK JH2 enzyme mix (ChemPartner: CP20210818A-BV), tracer (ChemPartner: CP-0029472-051) and mAb Anti-6HIS Tb cryptate Gold (Cisbio: Cat No. 61HI2TLA) mix were prepared in assay buffer (10 mM MgCl2, 20 mM HEPES pH 7.5, 0.01% Triton X-100, 1 mM DTT). Compounds diluted in DMSO (Final Concentrations 0.1 to 0.000005 [μM]) and enzyme mix (0.5 nM Final Concentration) were added to 384 well plates, briefly centrifuged and incubated at room temperature for 10 minutes. After incubation, tracer mix (Tracer-35 nM final concentration); (MAb Anti-6HIS Tb cryptate Gold-0.5× final)) was added, briefly centrifuged then incubate at room temperature 60 minutes. After incubation, plates were read by Envision TR-FRET (Ex340/Em495/520) protocol (PerkinElmer-Envision 2104 multilabel plate reader).

T1 sequence (P29597 589-875 limits assumed): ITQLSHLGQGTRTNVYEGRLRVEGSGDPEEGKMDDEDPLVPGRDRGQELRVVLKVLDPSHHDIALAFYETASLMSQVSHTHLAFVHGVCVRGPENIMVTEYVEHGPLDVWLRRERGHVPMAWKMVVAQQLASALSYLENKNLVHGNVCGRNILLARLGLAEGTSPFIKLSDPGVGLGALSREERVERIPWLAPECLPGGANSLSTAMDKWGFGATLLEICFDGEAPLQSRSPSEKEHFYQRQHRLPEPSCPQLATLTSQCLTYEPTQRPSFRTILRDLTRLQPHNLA

| Compound | Ligand Efficiency |
| --- | --- |
| CC(NC1CC(F)(F)C1)c1ccc(Nc2cc(Nc3ncccc3S(C)(=O)=O)ncn2)nc1 (stereo not drawn) [Compound 35, N^4-(5-(1-(3,3-difluorocyclobutylamino)ethyl)pyridin-2-yl)-N^6-(3-(methylsulfonyl)pyridin-2-yl)pyrimidine-4,6-diamine] | ††† (†††: >0.39) |
| CC1(CNc2ccc(Nc3cc(Nc4ncccc4S(C)(=O)=O)ncn3)nc2)COC1 [Compound 36, N^4-(5-(((3-methyloxetan-3-yl)methyl)amino)pyridin-2-yl)-N^6-(3-(methylsulfonyl)pyridin-2-yl)pyrimidine-4,6-diamine] | ††† (†††: >0.39) |
| CS(=O)(=O)c1cccnc1Nc1cc(Nc2ccc(NC3CC(F)(F)C3)cn2)ncn1 [Compound 37, N^4-(5-(3,3-difluorocyclobutylamino)pyridin-2-yl)-N^6-(3-(methylsulfonyl)pyridin-2-yl)pyrimidine-4,6-diamine] | ††† (†††: >0.39) |
| CS(=O)(=O)c1cccnc1Nc1cc(Nc2ccc(C(=O)NC3CC(F)(F)C3)cn2)ncn1 [Compound 38, N-(3,3-difluorocyclobutyl)-6-(6-(3-(methylsulfonyl)pyridine-2-ylamino)pyrimidin-4-ylamino)nicotinamide] | ††† (†††: >0.39) |
| CC(C)(NC1COC1)c1ccc(Nc2cc(Nc3ccccc3S(C)(=O)=O)ncn2)nc1 [Compound 39, N^4-(2-(methylsulfonyl)phenyl)-N^6-(5-(2-(oxetan-3-ylamino)propan-2-yl)pyridin-2-yl)pyrimidine-4,6-diamine] | †† (††: 0.37-0.39) |
| CS(=O)(=O)c1ccccc1Nc1cc(Nc2ccc(C3(NC4COC4)CC3)cn2)ncn1 [Compound 41, N^4-(2-(methylsulfonyl)phenyl)-N^6-(5-(1-(oxetan-3-ylamino)cyclopropyl)pyridin-2-yl)pyrimidine-4,6-diamine] | †† (††: 0.37-0.39) |
| CS(=O)(=O)c1ccccc1Nc1cc(Nc2ccc(N3CCOCC3)cn2)ncn1 [Compound 42, N^4-(2-(methylsulfonyl)phenyl)-N^6-(5-morpholinopyridin-2-yl) pyrimidine-4,6-diamine] | ††† (†††: >0.39) |
| CS(=O)(=O)c1ccccc1Nc1cc(Nc2ccc(C(=O)NC3CCOC3)cn2)ncn1 (stereo not drawn) [Compound 43, 6-(6-(2-(methylsulfonyl)phenylamino)pyrimidin-4-ylamino)-N-(tetrahydrofuran-3-yl)nicotinamide] | †† (††: 0.37-0.39) |
| Cc1ccnc(Nc2cc(Nc3ccccc3S(C)(=O)=O)ncn2)c1 [Compound 44, N^4-(4-methylpyridin-2-yl)-N^6-(2-(methylsulfonyl)phenyl) pyrimidine-4,6-diamine] | ††† (†††: >0.39) |
| Cc1ccnc(Nc2cc(Nc3ccccc3C(N)=O)ncn2)c1 [Compound 45, 2-((6-((4-methylpyridin-2-yl)amino)pyrimidin-4-yl)amino) benzamide] | ††† (†††: >0.39) |
| Cc1cccc(Nc2cc(Nc3ccccc3C(N)=O)ncn2)n1 [Compound 46] | ††† (†††: >0.39) |
| Cc1cnnc(Nc2cc(Nc3ccccc3C(N)=O)ncn2)c1 [Compound 47, 2-((6-((5-methylpyridazin-3-yl)amino)pyrimidin-4-yl)amino) benzamide] | ††† (†††: >0.39) |
| Cc1nccc(Nc2cc(Nc3ccccc3C(N)=O)ncn2)n1 [Compound 48, 2-((6-((2-methylpyrimidin-4-yl)amino)pyrimidin-4-yl)amino) benzamide] | ††† (†††: >0.39) |
| Cc1cncc(Nc2cc(Nc3ccccc3C(N)=O)ncn2)n1 [Compound 49, 2-(6-(6-methylpyrazin-2-ylamino)pyrimidin-4-ylamino)benzamide] | ††† (†††: >0.39) |
| Cc1cccc(Nc2cc(Nc3cccnc3C(N)=O)ncn2)n1 [Compound 50, 3-((6-((6-methylpyridin-2-yl)amino)pyrimidin-4-yl)amino) picolinamide] | ††† (†††: >0.39) |
| Cc1cccc(Nc2cc(Nc3ccncc3C(N)=O)ncn2)n1 [Compound 51, 4-((6-((6-methylpyridin-2-yl)amino)pyrimidin-4-yl)amino) nicotinamide] | ††† (†††: >0.39) |
| Cc1cccc(Nc2cc(Nc3ncccc3C(N)=O)ncn2)n1 [Compound 52, 2-((6-((6-methylpyridin-2-yl)amino)pyrimidin-4-yl)amino) nicotinamide] | ††† (†††: >0.39) |
| Cc1cccc(Nc2cc(Nc3ccccc3NS(C)(=O)=O)ncn2)n1 [Compound 53, N-(2-(6-(6-methylpyridin-2-ylamino)pyrimidin-4-ylamino)phenyl) methanesulfonamide] | ††† (†††: >0.39) |

| Compound | Ligand Efficiency |
| --- | --- |
| C[C@H]1COCCN1c1ccc(Nc2cc(Nc3ccccc3S(C)(=O)=O)ncn2)nc1 [Compound 54, (S)—N^4-(5-(3-methylmorpholino)pyridin-2-yl)-N^6-(2-(methylsulfonyl)phenyl)pyrimidine-4,6-diamine] | † (†: < 0.37) |
| Cc1cccc(Nc2cc(Nc3ccccc3C(N)=O)nc(N)n2)n1 [Compound 55, 2-((2-amino-6-((6-methylpyridin-2-yl)amino)pyrimidin-4-yl)amino)benzamide] | †† (††: 0.37-0.39) |
| Cc1cccc(Nc2cc(Nc3ccccc3S(C)(=O)=O)nc(C)n2)n1 [Compound 56, 2-methyl-N^4-(6-methylpyridin-2-yl)-N^6-(2-(methylsulfonyl)phenyl) pyrimidine-4,6-diamine] | † (†: < 0.37) |
| Cc1cccc(Nc2cc(Nc3ccccc3S(C)(=O)=O)nc(N)n2)n1 [Compound 57, N^4-(6-methylpyridin-2-yl)-N^6-(2-(methylsulfonyl)phenyl)pyrimidine-2,4,6-triamine] | ††† (†††: >0.39) |
| Cc1ccnc(Nc2cc(Nc3ccccc3C(N)=O)ncn2)n1 [Compound 58, 2-(6-(4-methylpyrimidin-2-ylamino)pyrimidin-4-ylamino)benzamide] | ††† (†††: >0.39) |
| Cc1cccc(Nc2cc(Nc3cccnc3S(C)(=O)=O)ncn2)n1 [Compound 59, N^4-(6-methylpyridin-2-yl)-N^6-(2-(methylsulfonyl)pyridin-3-yl) pyrimidine-4,6-diamine] | ††† (†††: >0.39) |
| Cc1cccc(Nc2cc(Nc3ccncc3S(C)(=O)=O)ncn2)n1 [Compound 60, N^4-(6-methylpyridin-2-yl)-N^6-(3-(methylsulfonyl)pyridin-4-yl) pyrimidine-4,6-diamine] | ††† (†††: >0.39) |
| Cc1cccc(Nc2cc(Nc3cnccc3C(N)=O)ncn2)n1 [Compound 61, 3-((6-((6-methylpyridin-2-yl)amino)pyrimidin-4-yl)amino) isonicotinamide] | ††† (†††: >0.39) |
| Cc1ccnc(Nc2cc(Nc3ccccc3P(C)(C)=O)ncn2)c1 [Compound 63, N^4-(2-(dimethylphosphoryl)phenyl)-N^6-(4-methylpyridin-2-yl) pyrimidine-4,6-diamine] | ††† (†††: >0.39) |
| CS(=O)(=O)c1cccnc1Nc1cc(Nc2ncccc2F)ncn1 [Compound 64, N^4-(3-fluoropyridin-2-yl)-N^6-(3-(methylsulfonyl)pyridin-2-yl) pyrimidine-4,6-diamine] | ††† (†††: >0.39) |
| COc1ccnc(Nc2cc(Nc3cccc(C)n3)ncn2)c1S(C)(=O)=O [Compound 65, N^4-(4-methoxy-3-(methylsulfonyl)pyridin-2-yl)-N^6-(6-methylpyridin-2-yl)pyrimidine-4,6-diamine] | ††† (†††: >0.39) |
| Cn1ccc(Nc2cc(Nc3ccccc3S(C)(=O)=O)ncn2)n1 [Compound 66, N^4-(1-methyl-1H-pyrazol-3-yl)-N^6-(2-(methylsulfonyl)phenyl) pyrimidine-4,6-diamine] | ††† (†††: >0.39) |
| Cn1ccc(Nc2cc(Nc3ccccc3C(N)=O)ncn2)n1 [Compound 67, 2-((6-((1-methyl-1H-pyrazol-3-yl)amino)pyrimidin-4-yl)amino)benzamide] | ††† (†††: >0.39) |
| Cc1cccnc1Nc1cc(Nc2ccccc2C(N)=O)ncn1 [Compound 68, 2-((6-((3-methylpyridin-2-yl)amino)pyrimidin-4-yl)amino) benzamide] | ††† (†††: >0.39) |
| CS(=O)(=O)c1ccccc1Nc1cc(NC(=O)C2CC2)ncn1 [Compound 69, N^4-(cyclopropylcarbonyl)-N^6-(2-(methylsulfonyl)phenyl)pyrimidine-4,6-diamine] | ††† (†††: >0.39) |
| COc1ccc(Nc2cc(NC(=O)C3CC3)ncn2)c(C(N)=O)c1 [Compound 70, 2-((6-(cyclopropanecarboxamido)pyrimidin-4-yl)amino)-5-methoxy benzamide] | ††† (†††: >0.39) |
| Cc1cccc(Nc2cc(Nc3ncccc3CS(C)(=O)=O)ncn2)n1 [Compound 71, N^4-(6-methylpyridin-2-yl)-N^6-(3-((methylsulfonyl)methyl)pyridin-2-yl)pyrimidine-4,6-diamine] | ††† (†††: >0.39) |
| Cn1cc(-c2ccnc(Nc3cc(Nc4ccc(NC5(C)COC5)cn4)ncn3)c2S(C)(=O)=O)cn1 [Compound 72, N^4-(4-(1-methyl-1H-pyrazol-4-yl)-3-(methylsulfonyl)pyridin-2-yl)-N^6-(5-(3-methyloxetan-3-ylamino)pyridin-2-yl)pyrimidine-4,6-diamine] | † (†: < 0.37) |
